# Experiments:
# [1] = test system: 258 kinases; assay: Kinase selectivity analysis; type: biochemical; conditions: analysis of 258 kinases
# Method: (§1) Compound 1 is a potent inhibitor of the kinase activities of ERK1 and ERK2. In some embodiments, Compound 1 inhibits one or both of ERK1 and ERK2 with an IC50 of about 10 to about 20 nM.
# [2] = test system: KRAS-mutant cancer cell lines; assay: Cancer cell panel screening, anti-proliferative activity; type: cell-based; conditions: 28 of 37 KRAS-mutant cancer cell lines
# From the text: (§2) Bioinformatic analyses indicate that tumors with activating mutations of BRAF are particularly sensitive to Compound 1. […] In the same cancer cell panel screening, 28 of 37 (76%) KRAS-mutant cancer cell lines were sensitive to Compound 1. […] This is of particular importance as resistance to BRAF inhibition has been commonly observed in human patients. […] Without wishing to being bound by any particular theory, it is believed that inhibitors of one or both of ERK1 and ERK2, or a mutant thereof, such as Compound 1, or pharmaceutically acceptable salts thereof, provide effective salvage therapy.
# [3] = test system: BRAF-mutant cancer cell lines; assay: as above; type: cell-based; conditions: 25 of 27 BRAF-mutant cancer cell lines tested
# From the text: as §2
# [4] = test system: A375 melanoma cells that have acquired in vitro resistance to BRAF and MEK inhibition; assay: Inhibitory activity against resistant melanoma cells; type: cell-based
# From the text: as §2
# [5] = target: ERK1 (Homo sapiens, UniProt P27361); assay: ERK kinase activity inhibition; type: biochemical
# ERK1, sequence (P27361 whole entry): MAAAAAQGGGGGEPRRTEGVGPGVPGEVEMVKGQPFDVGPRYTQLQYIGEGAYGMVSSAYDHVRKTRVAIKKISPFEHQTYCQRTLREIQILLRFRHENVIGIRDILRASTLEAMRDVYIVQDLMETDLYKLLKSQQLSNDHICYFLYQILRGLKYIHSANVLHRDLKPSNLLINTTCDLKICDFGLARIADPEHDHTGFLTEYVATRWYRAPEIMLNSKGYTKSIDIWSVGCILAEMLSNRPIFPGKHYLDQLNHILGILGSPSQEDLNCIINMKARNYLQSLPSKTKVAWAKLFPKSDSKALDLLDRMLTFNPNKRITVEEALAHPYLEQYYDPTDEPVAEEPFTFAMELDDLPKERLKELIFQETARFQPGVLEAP
# Method: as §1
# (§3) The activity of Compound 1, and pharmaceutically acceptable salts thereof, as an inhibitor of one or both of an ERK1 and ERK2 kinase, or a mutant thereof, may be assayed in vitro, in vivo or in a cell line. In vitro assays include assays that determine inhibition of downstream phosphorylation, changes in gene expression, subsequent functional markers and consequences, and/or kinase activity of one or both of activated ERK1 and ERK2 kinase, or a mutant thereof. Alternate in vitro assays quantitate the ability of the test compound to bind to one or both of ERK1 and ERK2. Test compound binding may be measured by radiolabeling the test compound prior to binding, isolating one or both of the compound/ERK1 complex and the compound/ERK2 complex, and determining the amount of radiolabel bound. Alternatively, test compound binding may be determined by running a competition experiment where test compounds are incubated with one or both of ERK1 and ERK2 kinase bound to known radioligands. […]
# [6] = target: ERK2 (Homo sapiens, UniProt P28482); assay: ERK kinase activity inhibition; type: biochemical
# ERK2, sequence (P28482 whole entry): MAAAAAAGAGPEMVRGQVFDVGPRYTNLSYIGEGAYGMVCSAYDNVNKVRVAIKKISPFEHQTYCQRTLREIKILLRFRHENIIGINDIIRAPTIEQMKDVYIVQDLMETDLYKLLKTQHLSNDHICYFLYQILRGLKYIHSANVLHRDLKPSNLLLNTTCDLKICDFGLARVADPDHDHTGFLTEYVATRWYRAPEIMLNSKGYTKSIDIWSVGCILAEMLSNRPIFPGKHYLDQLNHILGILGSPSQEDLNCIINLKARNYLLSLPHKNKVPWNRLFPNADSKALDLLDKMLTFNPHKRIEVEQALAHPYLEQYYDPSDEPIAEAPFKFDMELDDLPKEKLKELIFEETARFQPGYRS
# Method: as §1, §3
# [7] = test system: SKM-1 (non-MLL-r); assay: Compound A2 7-day pre-treatment, then Compound A2 and Compound 1 for 3 days, CellTiter-Glo (Example 9); type: cell-based, human; conditions: Compound A2 7 days, then both for 3 days, n=2
# Method: (§4) At the endpoint, cell viability was measured via ATP content using CellTiter-Glo®.
# [8] = test system: MOLM-13 (MLL-AF9); assay: as above; type: cell-based, human; conditions: Compound A2 7 days, then both for 3 days, n=2
# Method: as §4
smiles,measurement,setting,value
"C=CC(=O)Nc1cc(C)ccc1Nc1nc(Nc2cc(OC)ncc2C)ncc1C(F)(F)F [Compound 1, N-(2-((2-((2-methoxy-5-methylpyridin-4-yl)amino)-5-(trifluoromethyl)pyrimidin-4-yl)amino)-5-methylphenyl)acrylamide]",Kinase selectivity profile,[1],good overall kinase selectivity profile
same,Cell lines sensitive to Compound 1,[2],76%
same,Cell lines sensitive to Compound 1 inhibition (GI50 <1 μM),[3],93%
same,Activity against resistant A375 melanoma cells,[4],inhibitory activity
same,IC50,[5],10 to 20 nM
same,IC50,[6],10 to 20 nM
same,Combination (Compound A2 and Compound 1),[7],No benefit
same,Combination (Compound A2 and Compound 1),[8],Synergy
